Assay results taken from the Biogen ADME set (Fang et al. 2023).
In brackets after ≈: the same amount, converted by molar mass.

Settings: for aqueous solubility: pH 6.8

SMILES | MDR1-MDCK efflux ratio | intrinsic clearance, human liver microsomes | intrinsic clearance, rat liver microsomes | aqueous solubility | fraction unbound, human plasma | fraction unbound, rat plasma
O=C(Nc1ccccc1-n1ccnc1)c1ccc(F)cc1 | 0.961 | 10.2 mL/min/kg | 40.3 mL/min/kg | 60.8 µg/mL (≈ 216 µM) |  | 
Cc1nc2ncccn2c1C(=O)N(CC#Cc1ccccc1)C1CCCC1 | 1.94 | 63.7 mL/min/kg | 4650 mL/min/kg | 42.9 µg/mL (≈ 120 µM) |  | 
N#Cc1cccc(CN2CCOC[C@H](O)C2)c1 |  | 7.9 mL/min/kg | 12 mL/min/kg | 21.1 µg/mL (≈ 90.9 µM) |  | 
COCCOCc1ccc(-c2cc3onc(-c4ccccc4)c3c(=O)n2C)cc1 | 0.466 | 13.7 mL/min/kg | 135 mL/min/kg | 14.2 µg/mL (≈ 36.5 µM) |  | 
CCc1nc2c(C)cc(N3CCN(CC(=O)N4CC(O)C4)CC3)cn2c1N(C)c1nc(-c2ccc(F)cc2)c(C#N)s1 | 97.9 | 108 mL/min/kg | 557 mL/min/kg | 60.3 µg/mL (≈ 102 µM) | 0.00624 | 0.00368
COc1cc2nc(-c3cc(F)ccc3O)nc(N[C@@H]3CNC[C@H]3C(C)(C)O)c2cc1OC.Cl |  |  |  |  | 0.00076 | 0.0015
CN1CCC(Cc2cccc(-c3nccs3)n2)C1 (stereo not drawn) | 1.16 | 43 mL/min/kg | 2030 mL/min/kg |  |  | 
CCNc1nc(-c2cccnc2)nc(C)c1C | 0.577 | 49.7 mL/min/kg | 69.8 mL/min/kg |  |  | 
O=C(c1ccc(-c2ccncc2)cc1)N1CCC(O)(CN2CCCC2)CC1 | 17.7 | ≤ 4.74 mL/min/kg | 76 mL/min/kg |  |  | 
O=C(Nc1ccc(N2CCCC2)cn1)c1ccc(-c2cnco2)cc1 | 0.338 | 27.2 mL/min/kg | 190 mL/min/kg |  |  | 
CCc1[nH]nc(NC2CCC(C(=O)OC)CC2)c1C (stereo not drawn) | 0.826 | 523 mL/min/kg | 296 mL/min/kg |  |  | 
O=C(Nc1ccc(F)cc1)[C@H](O)c1ccccc1 |  |  |  | 42.9 µg/mL (≈ 175 µM) |  | 
O=C(O)CCn1c2ccccc2c2ccccc21 | 0.809 | ≤ 4.74 mL/min/kg | 11.4 mL/min/kg | 52 µg/mL (≈ 217 µM) |  | 
O=C(NCc1nnc2c(O)nccn12)C1CCCC1 | 1.22 | ≤ 4.74 mL/min/kg | ≤ 10.7 mL/min/kg | 41.8 µg/mL (≈ 160 µM) |  | 
Cc1ccccc1CS(=O)(=O)c1ncc(Cl)c(C(=O)Nc2sc3c(c2C#N)CCCC3)n1 |  | 568 mL/min/kg | 2120 mL/min/kg |  |  | 
Cc1cc2c(C(N)=O)cccc2n1-c1nc2c(c(NCc3ccccc3)n1)COCC2 |  |  |  | 36.4 µg/mL (≈ 88 µM) |  | 
O=C(CN1CCCN(c2nccs2)CC1)Nc1cccc(Cl)c1 | 0.851 | 442 mL/min/kg | 1950 mL/min/kg | 37.1 µg/mL (≈ 106 µM) |  | 
O=C(CCc1cccs1)Nc1ccc(N2CCCC2)cn1 |  |  |  | 1.18 µg/mL (≈ 3.91 µM) |  | 
c1ccc(-n2cc(CNc3ncccn3)cn2)cc1 | 0.497 | 30.8 mL/min/kg | 181 mL/min/kg | 41.1 µg/mL (≈ 164 µM) |  | 
COc1ccc(-c2cccc(C3CCCN(CC(=O)Nc4ccccn4)C3)n2)cc1 (stereo not drawn) | 0.833 | 131 mL/min/kg | 2220 mL/min/kg | 8.1 µg/mL (≈ 20.1 µM) |  | 
Nc1nccc2c1ncn2[C@H]1C=C(CO)[C@@H](O)[C@H]1O |  | ≤ 4.74 mL/min/kg | 16.3 mL/min/kg |  |  | 
CC1CCC(O)(CSc2nnnn2C2CC2)CC1 (stereo not drawn) | 0.616 | 12.7 mL/min/kg | 355 mL/min/kg |  |  | 
CCOC(=O)C1(Cc2cc(-c3cccc(F)c3)no2)CCN(Cc2ccccc2O)CC1 |  |  |  | 0.68 µg/mL (≈ 1.55 µM) |  | 
Cc1ccc2c(c1)cc(CNCCc1ccccc1)c1nnnn12 | 0.45 | 417 mL/min/kg | 1770 mL/min/kg | 24.9 µg/mL (≈ 78.5 µM) |  | 
